Results: the supplement of paper PMC10331698
± gives the standard deviation of the averaged measurements.

Key:
Assay in all cases: level (log10 ratio to DMSO vehicle control); higher = higher biomarker level / cell amount than vehicle control
[1] = compound: CCN(CCO)S(=O)(=O)C(F)(F)C(F)(F)C(F)(F)C(F)(F)C(F)(F)C(F)(F)C(F)(F)C(F)(F)F [N-Ethyl-N-(2-hydroxyethyl)perfluorooctanesulfonamide]; details: in DMSO
Protocol: (§1)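 BioMAP Diversity Plus panel of 12 human primary cell co-culture systems (3C, 4H, LPS, SAg, BT, BF4T, BE3C, CASM3C, HDF3CGF, KF3CT, MyoF, Mphg). Compounds were added 1 h before stimulation and left for 24 h (MyoF 48 h; BT 72 h for soluble read-outs or 6 d for IgG). Biomarkers were read by ELISA, cytotoxicity by SRB, PBMC viability and proliferation by Alamar Blue. Each well value was divided by the mean of 8 DMSO control wells on the same plate and log10 transformed; duplicate blinded samples were tested at 4 concentrations.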

[2] = compound: FC(F)(F)C(F)(C(F)(F)F)C(F)(F)C(F)(F)CC1CO1 [3-(Perfluoro-3-methylbutyl)-1,2-propenoxide]; details: in DMSO
Protocol: as §1

[3] = compound: FC(F)(F)C(F)(F)C(F)(F)C(F)(F)C(F)(F)CCI [1-Iodo-1H,1H,2H,2H-perfluoroheptane]; details: in DMSO
Protocol: as §1

[4] = compound: NCC(F)(F)C(F)(F)C(F)(F)C(F)(F)C(F)(F)C(F)(F)C(F)(F)F [1H,1H-Perfluorooctylamine]; details: in DMSO
Protocol: as §1

Perfluorobutanoic acid = compound: O=C(O)C(F)(F)C(F)(F)C(F)(F)F [Perfluorobutanoic acid]; details: in DMSO
Protocol: as §1

[5] = compound: O=C(O)C(F)(F)OC(F)(F)C(F)(F)OC(F)(F)F [Perfluoro-3,6-dioxaheptanoic acid]; details: in DMSO
Protocol: as §1

[6] = compound: OCCC(F)(F)C(F)(F)C(F)(F)C(F)(F)C(F)(F)C(F)(F)F [6:2 Fluorotelomer alcohol]; details: in DMSO
Protocol: as §1

[7] = compound: OCCCC(F)(F)C(F)(F)C(F)(F)C(F)(F)C(F)(F)C(F)(F)C(F)(F)F [7:3 Fluorotelomer alcohol]; details: 6700 nM; in DMSO
Protocol: as §1

Row | Test System | level (log10) ([1]; 6700 nM) | level (log10) ([1]; 20000 nM) | level (log10) ([2]; 6700 nM) | level (log10) ([2]; 20000 nM) | level (log10) ([3]; 6700 nM) | level (log10) ([3]; 20000 nM) | level (log10) ([3]; 60000 nM) | level (log10) ([4]; 6700 nM) | level (log10) ([4]; 20000 nM) | level (log10) ([4]; 60000 nM) | level (log10) (Perfluorobutanoic acid; 6700 nM) | level (log10) (Perfluorobutanoic acid; 20000 nM) | level (log10) (Perfluorobutanoic acid; 60000 nM) | level (log10) ([5]; 6700 nM) | level (log10) ([5]; 20000 nM) | level (log10) ([5]; 60000 nM) | level (log10) ([6]; 6700 nM) | level (log10) ([6]; 20000 nM) | level (log10) [7]
1 | MyoF:Collagen I | 0.042 ± 0.0028 | -0.155 ± 0.029 | 0 ± 0.0099 | -0.017 ± 0.017 | -0.0065 ± 0.012 | 0.007 ± 0.0042 | 0.0375 ± 0.0035 | 0.012 ± 0.014 | -0.016 ± 0.0042 | 0.013 ± 0.021 | 0.0075 ± 0.011 | 0.005 ± 0.042 | 0.0025 ± 0.012 | -0.0185 ± 0.039 | -0.002 ± 0.0099 | -0.0155 ± 0.023 | -0.0015 ± 0.0064 | -0.003 ± 0.011 | -0.0125 ± 0.011
2 | MyoF:Collagen III | -0.0045 ± 0.022 | -0.228 ± 0.17 | -0.004 ± 0.0099 | -0.0275 ± 0.0078 | 0.0085 ± 0.029 | 0.0185 ± 0.0092 | 0.041 ± 0.013 | -0.007 ± 0.0057 | 0.003 ± 0.014 | 0.01 | -0.0155 ± 0.016 | 0.0025 ± 0.011 | -0.0145 ± 0.025 | -0.025 ± 0.0014 | -0.001 ± 0.017 | 0.027 ± 0.038 | 0.003 ± 0.016 | -0.005 ± 0.0014 | -0.0035 ± 0.012
3 | MyoF:Collagen IV | -0.0665 ± 0.013 | 0.078 ± 0.035 | 0.029 ± 0.024 | 0.057 ± 0.075 | 0.03 ± 0.0071 | 0.0715 ± 0.0035 | 0.072 ± 0.028 | -0.0035 ± 0.018 | -0.009 ± 0.016 | -0.0055 ± 0.0035 | -0.032 ± 0.051 | -0.0215 ± 0.04 | -0.0055 ± 0.018 | -0.011 ± 0.0085 | 0.0045 ± 0.013 | 0.0015 ± 0.021 | -0.0005 ± 0.013 | -0.002 ± 0.013 | -0.02 ± 0.0085
4 | MyoF:Decorin | -0.0095 ± 0.016 | -0.085 ± 0.028 | 0.0025 ± 0.029 | 0.026 ± 0.042 | -0.012 ± 0.0028 | -0.022 ± 0.023 | -0.007 ± 0.034 | -0.016 ± 0.011 | -0.025 ± 0.017 | -0.027 ± 0.0099 | -0.013 ± 0.0014 | -0.0105 ± 0.039 | -0.0025 ± 0.00071 | -0.0075 ± 0.03 | -0.013 ± 0.017 | 0.012 ± 0.04 | -0.0055 ± 0.0021 | 0.0085 ± 0.011 | 0.0355 ± 0.059
5 | MyoF:MMP-1 | 0.069 ± 0.021 | 0.426 ± 0.052 | -0.007 ± 0.0085 | -0.014 ± 0.0057 | -0.013 ± 0.038 | -0.0185 ± 0.037 | 0.037 ± 0.011 | -0.0095 ± 0.016 | -0.0395 ± 0.012 | -0.0055 ± 0.025 | -0.027 ± 0.0028 | -0.0135 ± 0.016 | -0.0005 ± 0.04 | -0.0045 ± 0.0021 | -0.0545 ± 0.013 | 0.041 ± 0.054 | 0 ± 0.016 | -0.0035 ± 0.005 | -0.004
